# Experimental data from US10131659B2, “Iodonium analogs as inhibitors of NADPH oxidases and other flavin dehydrogenases; formulations thereof; and uses thereof” (priority 2014, dated 2018).
# Columns and labels:
# [1] = tested on: HT-29 human colon cancer cells; assay: Clonogenic assay, HT-29 cells; type: cell-based; settings: for IC50: Homo sapiens
# Experimental: Several iodonium analog compounds were analyzed for inhibition of HT-29 growth using a clonogenic assay performed as described in Doroshow et al Biochem. Biophys. Res. Commun. 135: 330-335, 1986.
# [2] = tested on: HT-29 human colon cancer cells; settings: Free Rad. Biol. Med. 57: 162-165, 2013; cited from earlier work
# [3] = tested on: ROS production in HT-29 human colon cancer cells; assay: ROS production in HT-29 cells (chemiluminescence / DCF analytical cytometry); type: cell-based; settings: treatment for 24 hr with 10 nM
# [4] = tested on: HT-29 human colon cancer cells; assay: Growth inhibition of HT-29 cells by MTT assay; type: cell-based; settings: Homo sapiens, HT-29; 48 hr drug exposure; read-out: IC50, HT-29 human colon cancer cell growth
# Experimental: The compounds were analyzed for growth inhibition of HT-29 human colon cancer cells by MTT assay: 48 hr, drug exposures over several orders of concentration. The MTT assay was performed as described in Wu et al J. Immunology 190: 1859-1872, 2013.
smiles,measurement,setting,value
"c1ccc2c(c1)[I+]c1ccccc1-2 [Compound 13, Diphenyleneiodonium chloride, reference compound]",cytotoxic or cytostatic character,[1],cytostatic
same,exposure required to inhibit growth / cell reproduction,[1],requires prolonged exposure
same,IC50,"[1]; HT-29, 240 h, 10 days exposure, read-out: IC50 clonogenic survival, 10 days drug exposure",~10 nM
same,IC50,"[1]; HT-29, read-out: IC50 (±SE) clonogenic survival, 2 hrs drug exposure, 2 hrs exposure",9300 ± 3900 nM
same,IC50,"[1]; HT-29, read-out: IC50 (±SE) clonogenic survival, 6 hrs drug exposure, 6 hrs exposure",799 ± 180 nM
same,effect on cell cycle progression,[2],only G1 block
same,ROS production in HT-29 cells,[3],significantly decreased
same,IC50,[4],300 nM
